How the values were obtained:
[1] = test system: Key Grass and Sedge Weeds as well as Grass Crops; assay: Post-emergent Test II herbicidal activity (Table 6); type: in vivo; settings: for Visual Growth Reduction (%) 14 Days After Application, CYPES: CYPES: yellow nutsedge (Cyperus esculentus); for Visual Growth Reduction (%) 14 Days After Application, DIGSA: DIGSA: crabgrass (Digitaria sanguinalis); for Visual Growth Reduction (%) 14 Days After Application, ECHCG: ECHCG: barnyardgrass (Echinochloa crus-galli); for Visual Growth Reduction (%) 14 Days After Application, ORYSA: ORYSA: rice (Oryza sativa); for Visual Growth Reduction (%) 14 Days After Application, ORYSA / Visual Growth Reduction (%) 14 Days After Application, TRZSS / Visual Growth Reduction (%) 14 Days After Application, ZEAMX: crop; for Visual Growth Reduction (%) 14 Days After Application, SETFA: SETFA: giant foxtail (Setaria faberi); for Visual Growth Reduction (%) 14 Days After Application, SORVU: SORVU: sorghum (Sorghum vulgare); for Visual Growth Reduction (%) 14 Days After Application, TRZSS: TRZSS (wheat, Triticum aestivum); for Visual Growth Reduction (%) 14 Days After Application, ZEAMX: ZEAMX: maize, corn (Zea mays)
Protocol: (§1) Post-emergent Test II: Seeds or nutlets of the desired test plant species were planted in Sun Gro Metro-Mix® 360 planting mixture, which typically has a pH of 6.0 to 6.8 and an organic matter content of about 30 percent, in plastic pots with a surface area of 64 square centimeters. When required to ensure good germination and healthy plants, a fungicide treatment and/or other chemical or physical treatment was applied. The plants were grown for 7-21 d in a greenhouse with an approximate 15 h photoperiod which was maintained at about 23-29° C. during the day and 22-28° C. during the night. Nutrients and water were added on a regular basis and supplemental lighting was provided with overhead metal halide 1000-Watt lamps as necessary. The plants were employed for testing when they reached the first or second true leaf stage.
(§2) A weighed amount, determined by the highest rate to be tested, of each test compound was placed in a 25 mL glass vial and was dissolved in 4 mL of a 97:3 v/v mixture of acetone and DMSO to obtain concentrated stock solutions. […] The concentrated stock solutions obtained were diluted with 20 mL of an aqueous mixture containing acetone, water, isopropyl alcohol, DMSO. Atplus 411F crop oil concentrate, and Triton® X-155 surfactant in a 48.5:39:10:1.5:1.0:0.02 v/v ratio to obtain spray solutions containing the highest application rates. Additional application rates were obtained by serial dilution of 12 mL of the high rate solution into a solution containing 2 mL of 97:3 v/v mixture of acetone and DMSO and 10 mL of an aqueous mixture containing acetone, water, isopropyl alcohol, DMSO, Atplus 411F crop oil concentrate, and Triton X-155 surfactant in a 48.5:39:10:1.5:1.0:0.02 v/v ratio to obtain ½×, ¼×, ⅛× and 1/16× rates of the high rate. Compound requirements are based upon a 12 mL application volume at a rate of 187 liters per hectare (L/ha). Formulated compounds were applied to the plant material with an overhead Mandel track sprayer equipped with 8002E nozzles calibrated to deliver 187 L/ha over an application area of 0.503 square meters at a spray height of 18 inches (43 cm) above the average plant canopy height. Control plants were sprayed in the same manner with the solvent blank.
(§3) The treated plants and control plants were placed in a greenhouse as described above and watered by subirrigation to prevent wash-off of the test compounds. After 14 d, the condition of the test plants as compared with that of the untreated plants was determined visually and scored on a scale of 0 to 100 percent where 0 corresponds to no injury and 100 corresponds to complete kill.

[2] = test system: Key Broadleaf Weed and Crop Species; assay: Post-emergent Test II herbicidal activity (Table 5); type: in vivo; settings: for Visual Growth Reduction (%) 14 Days After Application, ABUTH: ABUTH: velvetleaf (Abutilon theophrasti); for Visual Growth Reduction (%) 14 Days After Application, AMARE: AMARE: redroot pigweed (Amaranthus retroflexus); for Visual Growth Reduction (%) 14 Days After Application, BRSNN: BRSNN: oilseed-rape, canola (Brassica napus); for Visual Growth Reduction (%) 14 Days After Application, CHEAL: CHEAL: lambsquarters (Chenopodium album); for Visual Growth Reduction (%) 14 Days After Application, EPHHL: EPHHL: wild poinsettia (Euphorbia heterophylla); for Visual Growth Reduction (%) 14 Days After Application, HELAN: HELAN: sunflower (Helianthus annuus); for Visual Growth Reduction (%) 14 Days After Application, VIOTR: VIOTR: wild pansy (Viola tricolor)
Protocol: as §1, §2, §3

Q: How did the “Visual Growth Reduction (%) 14 Days After Application, CYPES” value ([1]; 70 g ai/ha) turn out when COC(=O)c1nc(-c2ccc([N+](=O)[O-])cc2F)c(F)c(N)c1Cl [Compound 80] was run?
A: Its value is “G (0-29)”.

Q: And the “Visual Growth Reduction (%) 14 Days After Application, CYPES” value ([1]; 140 g ai/ha)?
A: Its value is “G (0-29)”.

Q: And the “Visual Growth Reduction (%) 14 Days After Application, DIGSA” value ([1]; 70 g ai/ha)?
A: Its value is “G (0-29)”.

Q: What about the “Visual Growth Reduction (%) 14 Days After Application, DIGSA” value ([1]; 140 g ai/ha) of the same compound?
A: Its value is “G (0-29)”.

Q: And the “Visual Growth Reduction (%) 14 Days After Application, ECHCG” value ([1]; 70 g ai/ha)?
A: The value was “G (0-29)”.

Q: What about the “Visual Growth Reduction (%) 14 Days After Application, ECHCG” value ([1]; 140 g ai/ha) of the same compound?
A: The value was “G (0-29)”.

Q: And the “Visual Growth Reduction (%) 14 Days After Application, ORYSA” value ([1]; 70 g ai/ha)?
A: The value was “G (0-29)”.

Q: And the “Visual Growth Reduction (%) 14 Days After Application, ORYSA” value ([1]; 140 g ai/ha)?
A: The value was “G (0-29)”.

Q: What about the “Visual Growth Reduction (%) 14 Days After Application, SETFA” value ([1]; 70 g ai/ha) of the same compound?
A: The value was “G (0-29)”.

Q: And the “Visual Growth Reduction (%) 14 Days After Application, SETFA” value ([1]; 140 g ai/ha)?
A: Its value is “G (0-29)”.

Q: What about the “Visual Growth Reduction (%) 14 Days After Application, SORVU” value ([1]; 70 g ai/ha) of the same compound?
A: The value was “G (0-29)”.

Q: And the “Visual Growth Reduction (%) 14 Days After Application, SORVU” value ([1]; 140 g ai/ha)?
A: The value was “G (0-29)”.

Q: What about the “Visual Growth Reduction (%) 14 Days After Application, TRZSS” value ([1]; 70 g ai/ha) of the same compound?
A: Its value is “G (0-29)”.

Q: And the “Visual Growth Reduction (%) 14 Days After Application, TRZSS” value ([1]; 140 g ai/ha)?
A: The value was “G (0-29)”.

Q: And the “Visual Growth Reduction (%) 14 Days After Application, ZEAMX” value ([1]; 70 g ai/ha)?
A: Its value is “G (0-29)”.

Q: What about the “Visual Growth Reduction (%) 14 Days After Application, ZEAMX” value ([1]; 140 g ai/ha) of the same compound?
A: The value was “G (0-29)”.

Q: What about the “Visual Growth Reduction (%) 14 Days After Application, ABUTH” value ([2]; application rate 70 g ai/ha) of the same compound?
A: The value was “G (0-29)”.

Q: What about the “Visual Growth Reduction (%) 14 Days After Application, ABUTH” value ([2]; application rate 140 g ai/ha) of the same compound?
A: The value was “G (0-29)”.

Q: What about the “Visual Growth Reduction (%) 14 Days After Application, AMARE” value ([2]; application rate 70 g ai/ha) of the same compound?
A: The value was “D (60-74)”.

Q: And the “Visual Growth Reduction (%) 14 Days After Application, AMARE” value ([2]; application rate 140 g ai/ha)?
A: The value was “B (85-94)”.

Q: And the “Visual Growth Reduction (%) 14 Days After Application, BRSNN” value ([2]; application rate 70 g ai/ha)?
A: The value was “G (0-29)”.

Q: What about the “Visual Growth Reduction (%) 14 Days After Application, BRSNN” value ([2]; application rate 140 g ai/ha) of the same compound?
A: Its value is “G (0-29)”.

Q: And the “Visual Growth Reduction (%) 14 Days After Application, CHEAL” value ([2]; application rate 70 g ai/ha)?
A: Its value is “A (95-100)”.

Q: And the “Visual Growth Reduction (%) 14 Days After Application, CHEAL” value ([2]; application rate 140 g ai/ha)?
A: The value was “A (95-100)”.

Q: What about the “Visual Growth Reduction (%) 14 Days After Application, EPHHL” value ([2]; application rate 70 g ai/ha) of the same compound?
A: Its value is “C (75-84)”.

Q: And the “Visual Growth Reduction (%) 14 Days After Application, EPHHL” value ([2]; application rate 140 g ai/ha)?
A: The value was “C (75-84)”.

Q: What about the “Visual Growth Reduction (%) 14 Days After Application, HELAN” value ([2]; application rate 70 g ai/ha) of the same compound?
A: The value was “D (60-74)”.

Q: What about the “Visual Growth Reduction (%) 14 Days After Application, HELAN” value ([2]; application rate 140 g ai/ha) of the same compound?
A: The value was “C (75-84)”.

Q: What about the “Visual Growth Reduction (%) 14 Days After Application, VIOTR” value ([2]; application rate 70 g ai/ha) of the same compound?
A: Its value is “G (0-29)”.

Q: What about the “Visual Growth Reduction (%) 14 Days After Application, VIOTR” value ([2]; application rate 140 g ai/ha) of the same compound?
A: The value was “G (0-29)”.

Source: patent US9113629B2, “4-amino-6-(4-substituted-phenyl)-picolinates and 6-amino-2-(4-substituted-phenyl)-pyrimidine-4-carboxylates and their use as herbicides” (DOW AGROSCIENCES LLC, priority 2013, dated 2015)
